Experimental data reported in ChEMBL document CHEMBL1136462, “The effect of remote chirality on the antibacterial activity of indolinyl, tetrahydroquinolyl and dihydrobenzoxazinyl oxazolidinones” (Bioorg Med Chem Lett, 2003).
Values after ≈ are worked out from the molar mass of the structure shown.

Legend:
[1] = Maximum plasma concentration (Cmax) of compound (9.83 mg/kg) after iv administration was determined Sprague-Dawley rat; format: ADME, organism-based; parameters: dose 9.83 mg/kg, route intravenous
[2] = Half life of compound (9.83 mg/kg) after iv administration was determined in Sprague-Dawley rat; format: ADME, organism-based; settings: in vivo
Staphylococcus aureus [3] = assay: In vitro antibacterial activity against Staphylococcus aureus UC12673 (SA2); format: functional
[4] = Oral bioavailability of compound (19.2 mg/kg) after po administration was determined in Sprague-Dawley rat; format: ADME, organism-based; settings: in vivo
Enterococcus faecalis = assay: In vitro antibacterial activity against vancomycin susceptible Enterococcus faecalis UC19217 (VSEF); format: functional
[5] = Clearance (Cl) of compound (9.83 mg/kg) after iv administration was determined in Sprague-Dawley rat; format: ADME, organism-based; settings: in vivo
Mus musculus = assay: In vivo efficacy of compound against Staphylococcus aureus UC9213 was determined after peroral administration in mouse; format: functional; settings: po
[6] = Half life of compound (19.2 mg/kg) after po administration was determined in Sprague-Dawley rat; format: ADME, organism-based; settings: in vivo
Haemophilus influenzae = assay: In vitro antibacterial activity against ampicillin resistant Haemophilus influenzae 30063 (AMPR b-lactamase+); format: functional
Streptococcus pneumoniae = assay: In vitro antibacterial activity against penicillin susceptible Streptococcus pneumoniae UC19912 (PSSP); format: functional
Moraxella catarrhalis = assay: In vitro antibacterial activity against Moraxella catarrhalis 30607 (b-lactamase+).; format: functional
Staphylococcus aureus [7] = assay: In vitro antibacterial activity against methicillin susceptible Staphylococcus aureus UC19213 (MSSA); (SA1); format: functional
[8] = Steady state volume distribution (Vss) of compound(9.83 mg/kg) after iv administration was determined in Sprague-Dawley rat; format: ADME, organism-based; settings: in vivo, read-out: Vss
[9] = Maximum plasma concentration (Cmax) of compound (19.2 mg/kg) after po administration was determined Sprague-Dawley rat; format: ADME, organism-based; parameters: dose 19.2 mg/kg, route oral
[10] = Tmax of compound (19.2 mg/kg) after po administration was determined in Sprague-Dawley rat; format: ADME, organism-based; settings: in vivo
[11] = test system: Staphylococcus epidermidis; assay: In vitro antibacterial activity against methicillin resistant Staphylococcus epidermis US 12084 (MRSE); format: functional

C/C(S)=N/C[C@H]1CN(c2ccc3c(c2)C[C@@H](C)N3C=O)C(=O)O1
Cmax [1]: 13600 ng/mL | half-life [2]: 6 min | MIC (Staphylococcus aureus [3]): < 0.5 µg/mL | bioavailability [4]: 30.8% | MIC (Enterococcus faecalis): < 0.5 µg/mL | clearance [5]: 28.9 mL/min/kg | ED50 (Mus musculus): 7.5 mg/kg | half-life [6]: 36.6 min | MIC (Haemophilus influenzae): 2 µg/mL (≈ 6 µM) | MIC (Streptococcus pneumoniae): < 0.5 µg/mL | MIC (Moraxella catarrhalis): 1 µg/mL (≈ 3 µM) | MIC (Staphylococcus aureus [7]): < 0.5 µg/mL | Vd [8]: 0.64 L/kg | Cmax [9]: 1130 ng/mL | Tmax [10]: 30 min | MIC [11]: < 0.5 µg/mL

C/C(S)=N/C[C@H]1CN(c2ccc3c(c2)C[C@H](C)N3C=O)C(=O)O1
MIC (Staphylococcus aureus [3]): 2 µg/mL (≈ 6 µM) | MIC (Enterococcus faecalis): 2 µg/mL (≈ 6 µM) | MIC (Haemophilus influenzae): 32 µg/mL (≈ 96 µM) | MIC (Streptococcus pneumoniae): < 0.5 µg/mL | MIC (Moraxella catarrhalis): 16 µg/mL (≈ 48 µM) | MIC (Staphylococcus aureus [7]): 2 µg/mL (≈ 6 µM) | MIC [11]: 1 µg/mL (≈ 3 µM)

CC(=O)NC[C@H]1CN(c2ccc3c(c2)C[C@H](C)N3)C(=O)O1
MIC (Staphylococcus aureus [3]): 32 µg/mL (≈ 111 µM) | MIC (Enterococcus faecalis): 64 µg/mL (≈ 221 µM) | MIC (Haemophilus influenzae): > 64 µg/mL | MIC (Moraxella catarrhalis): > 64 µg/mL | MIC (Staphylococcus aureus [7]): 32 µg/mL (≈ 111 µM) | MIC [11]: 16 µg/mL (≈ 55.3 µM)

CC(=O)NC[C@H]1CN(c2ccc3c(c2)C[C@H](C)N3C(=O)CO)C(=O)O1
MIC (Staphylococcus aureus [3]): 8 µg/mL (≈ 23 µM) | MIC (Enterococcus faecalis): 8 µg/mL (≈ 23 µM) | MIC (Haemophilus influenzae): > 16 µg/mL | MIC (Streptococcus pneumoniae): 1 µg/mL (≈ 2.88 µM) | MIC (Moraxella catarrhalis): 16 µg/mL (≈ 46.1 µM) | MIC (Staphylococcus aureus [7]): 8 µg/mL (≈ 23 µM) | MIC [11]: 2 µg/mL (≈ 5.76 µM)

CC(=O)NC[C@H]1CN(c2ccc3c(c2)CC[C@H](C)N3C=O)C(=O)O1
MIC (Staphylococcus aureus [3]): 4 µg/mL (≈ 12.1 µM) | MIC (Enterococcus faecalis): 8 µg/mL (≈ 24.1 µM) | MIC (Haemophilus influenzae): 64 µg/mL (≈ 193 µM) | MIC (Streptococcus pneumoniae): < 2 µg/mL | MIC (Moraxella catarrhalis): 16 µg/mL (≈ 48.3 µM) | MIC (Staphylococcus aureus [7]): 8 µg/mL (≈ 24.1 µM) | MIC [11]: < 2 µg/mL

CC(=O)NC[C@H]1CN(c2ccc3c(c2)C[C@H](C)N3C=O)C(=O)O1
MIC (Staphylococcus aureus [3]): 8 µg/mL (≈ 25.2 µM) | MIC (Enterococcus faecalis): 16 µg/mL (≈ 50.4 µM) | MIC (Haemophilus influenzae): > 64 µg/mL | MIC (Streptococcus pneumoniae): 4 µg/mL (≈ 12.6 µM) | MIC (Moraxella catarrhalis): > 64 µg/mL | MIC (Staphylococcus aureus [7]): 8 µg/mL (≈ 25.2 µM) | MIC [11]: 4 µg/mL (≈ 12.6 µM)

CC(=O)NC[C@H]1CN(c2ccc3c(c2)C[C@@H](C)N3)C(=O)O1
MIC (Staphylococcus aureus [3]): 8 µg/mL (≈ 27.6 µM) | MIC (Enterococcus faecalis): 16 µg/mL (≈ 55.3 µM) | MIC (Haemophilus influenzae): > 64 µg/mL | MIC (Streptococcus pneumoniae): 4 µg/mL (≈ 13.8 µM) | MIC (Moraxella catarrhalis): > 61 µg/mL | MIC (Staphylococcus aureus [7]): 8 µg/mL (≈ 27.6 µM) | MIC [11]: 4 µg/mL (≈ 13.8 µM)

C/C(S)=N/C[C@H]1CN(c2ccc3c(c2)OC[C@@H](C)N3C=O)C(=O)O1
MIC (Staphylococcus aureus [3]): < 0.5 µg/mL | MIC (Enterococcus faecalis): 1 µg/mL (≈ 2.86 µM) | MIC (Haemophilus influenzae): 32 µg/mL (≈ 91.6 µM) | MIC (Streptococcus pneumoniae): 0.5 µg/mL (≈ 1.43 µM) | MIC (Moraxella catarrhalis): 2 µg/mL (≈ 5.72 µM) | MIC (Staphylococcus aureus [7]): < 0.5 µg/mL | MIC [11]: < 0.5 µg/mL

CC(=O)NC[C@H]1CN(c2ccc3c(c2)OC[C@H](C)N3C=O)C(=O)O1
MIC (Staphylococcus aureus [3]): 8 µg/mL (≈ 24 µM) | MIC (Enterococcus faecalis): 32 µg/mL (≈ 96 µM) | MIC (Haemophilus influenzae): 64 µg/mL (≈ 192 µM) | MIC (Streptococcus pneumoniae): < 4 µg/mL | MIC (Moraxella catarrhalis): 32 µg/mL (≈ 96 µM) | MIC (Staphylococcus aureus [7]): 8 µg/mL (≈ 24 µM) | MIC [11]: < 4 µg/mL
